# Results: patent publication US8183285B2, “Therapeutic agent for irritable bowel syndrome and methods thereof” (Takeda Pharmaceutical Company Limited, priority 2006, dated 2012)
# Assays:
# [1] = system: partial restraint stress-induced defecation; details: experimental model for irritable bowel syndrome; cited from earlier work
# [2] = system: abdominal symptoms of irritable bowel syndrome; details: female patients suffering from irritable bowel syndrome; cited from earlier work
# [3] = system: restraint stress-induced defecation; test: Restraint stress-induced defecation test; type: in vivo; details: male Wistar rats
# Experimental: For the experiment, 10 week-old male Wistar rats (SLC) were used. Compound A (0.3, 3, 10 and 30 mg/kg) or a vehicle (control group, 0.5% methylcellulose) was administered orally with a dose of 4 ml/kg, and after 15 minutes, a restraint stress was loaded. Fecal pellets were retrieved 2 hours after the beginning of the restraint stress loading, and the number of feces was counted. In addition, as for normal group, rats were left in their individual cages without any after administration of vehicle, and the number of feces for 2 hours was counted. Experiment was carried out according to Test Example 2, wherein melatonin (10 and 30 mg/kg) instead of compound A was administered orally.
# [4] = system: normal defecation; test: Normal defecation test; type: in vivo; details: male Wistar rats, oral 30 mg/kg; FIG. 3
# Experimental: Further, a study on normal defecation was also conducted. Until the day before the experiment, two rats were kept in a cage and accustomed to the measuring condition. On the day of experiment, compound A or vehicle (control group, 0.5% methylcellulose) was administered orally with a dose of 4 ml/kg, and after 15 minutes, the measurement of defecation was commenced. The number of feces was counted two hours after the initiation of measurement, and the result was expressed by the number of feces per two rats.
# [5] = system: viscerosensory response; test: Viscerosensory response test: abdominal oblique muscle contractions under colonic distension stimulus after 1% acetic acid instillation; type: in vivo; details: male SD rats, oral 0.3, 3 and 30 mg/kg, 30 minutes before second colonic distension stimulus; FIG. 1
# Experimental: For the experiment, 7 to 8 week-old male SD rats (CREA Japan, Inc.) were used. Under ether anesthesia, the rats were sutured with a force transducer (F12-IS-SL, Star Medical Inc.) on the abdominal oblique muscle, and used for the experiment after waiting at least one day or more postoperatively for recovery of the animals. After fasting for 18 hours, 1% acetic acid was instilled into the colon to produce a hypersensitive condition. One hour after the instillation of acetic acid, a balloon was inserted into the colon, fixed, and colonic distension stimulus was loaded for 10 minutes by inflating the balloon. The colonic distension stimulus was loaded two times before and after administration of compound A, and the observed contraction number of the abdominal oblique muscle was counted. The result was expressed as inhibition percent. Determination of the abdominal muscle contraction was conducted with the naked eye and waveform of force transducer. Compound A was suspended in a 0.5% methylcellulose, and administered orally with a volume of 4 mL/kg 30 minutes before the second colonic distension stimulus (0.3, 3 and 30 mg/kg).
# [6] = system: melatonin receptor MT1/MT2; details: disclosed in U.S. Pat. No. 6,034,239; cited from earlier work
SMILES,inhibitory action on partial restraint stress-induced defecation [1],"improvement of abdominal symptoms (abdominal pain, abdominal bloating, sense of urgency for defecation) [2]","inhibition of restraint stress-induced defecation (number of feces for 2 hours) ([3]; oral 10 and 30 mg/kg, FIG. 4)","inhibition of normal defecation (number of feces per two rats, 2 hours) [4]","inhibition of viscerosensory response (contraction number of abdominal oblique muscle, inhibition percent) [5]",melatonin receptor MT1/MT2 agonistic action [6],"inhibition of restraint stress-induced defecation (number of feces for 2 hours) ([3]; oral 30 mg/kg, 15 minutes before restraint stress, FIG. 2)"
COc1ccc2[nH]cc(CCNC(C)=O)c2c1 [melatonin],shows an inhibitory action,improves significantly,did not inhibit,–,–,–,–
"CCC(=O)NCC[C@@H]1CCc2ccc3c(c21)CCO3 [compound A, (S)—N-[2-(1,6,7,8-tetrahydro-2H-indeno[5,4-b]furan-8-yl)ethyl]propionamide]",–,–,–,not inhibited,dose-dependent significant inhibition action,has a melatonin receptor MT1/MT2 agonistic action,inhibited significantly
